Measurements: the NIST ThermoML archive (doi:10.1016/j.jct.2009.02.002)

Experiment: xn = mol fraction of the nth substance listed
Conditions: 101 kPa, Liquid; for viscosity: Capillary tube (Ostwald / Ubbelohde) method; for mass density: Vibrating tube method; for speed of sound: automatically measured using an Anton Paar DSA 5000 instrument

CCCCCCCCCCCCCCCC [hexadecane] + CC(C)CO
Conditions	mass density, 298.15 K [kg/m3]	mass density, 303.15 K [kg/m3]	mass density, 308.15 K [kg/m3]	speed of sound, 298.15 K [m/s]	speed of sound, 303.15 K [m/s]	speed of sound, 308.15 K [m/s]	viscosity, 298.15 K [mPa·s]	viscosity, 303.15 K [mPa·s]	viscosity, 308.15 K [mPa·s]
x2 = 0.0505	770.506	766.982	763.479	1333.6	1314.5	1296.1	2.807	2.494	2.233
x2 = 0.108	770.704	767.145	763.586	1328.2	1309.5	1291.1	2.658	2.345	2.102
x2 = 0.1539	770.945	767.37	763.784	1324.2	1305.5	1287	2.601	2.277	2.023
x2 = 0.2202	771.403	767.797	764.189	1318.4	1299.8	1281.3	2.576	2.246	1.975
x2 = 0.2709	771.834	768.215	764.58	1313.8	1295.1	1276.6	2.596	2.235	1.952
x2 = 0.3389	772.519	768.878	765.22	1307.3	1288.7	1270.2	2.638	2.252	1.946
x2 = 0.4112	773.437	769.755	766.075	1299.9	1281.3	1262.8	2.672	2.292	1.967
x2 = 0.5043	774.946	771.22	767.482	1289.8	1271.2	1252.8	2.694	2.296	1.985
x2 = 0.5989	776.918	773.158	769.37	1277.8	1259.3	1241	2.676	2.295	1.998
x2 = 0.6938	779.505	775.707	771.873	1263.6	1245.3	1227.4	2.643	2.274	1.984
x2 = 0.8115	783.946	780.177	776.274	1241.5	1223.8	1206.2	2.673	2.28	2
x2 = 0.8638	786.74	782.888	778.972	1229.5	1211.9	1194.4	2.756	2.322	2.009
x2 = 0.9037	789.326	785.457	781.543	1219	1201.6	1184.3	2.874	2.379	2.046
x2 = 0.938	792.003	788.12	784.196	1209.3	1192.2	1175.2	3.023	2.469	2.082

CC(C)CCCC(C)CCCC(C)CCCCC(C)CCCC(C)CCCC(C)C (configuration not stated) [2,6,10,15,19,23-hexamethyltetracosane] + CC(C)CO
Conditions	mass density, 298.15 K [kg/m3]	mass density, 303.15 K [kg/m3]	mass density, 308.15 K [kg/m3]	speed of sound, 298.15 K [m/s]	speed of sound, 303.15 K [m/s]	speed of sound, 308.15 K [m/s]	viscosity, 298.15 K [mPa·s]	viscosity, 303.15 K [mPa·s]	viscosity, 308.15 K [mPa·s]
x2 = 0.0803	804.648	801.388	798.13	1377	1359.1	1341.4	23.81	18.82	15.28
x2 = 0.1032	804.528	801.259	797.982	1375.6	1357.7	1340	22.85	18.11	14.72
x2 = 0.1672	804.219	800.916	797.596	1371.4	1353.4	1335.6	20.71	16.5	13.45
x2 = 0.2045	804.051	800.733	797.401	1368.7	1350.8	1332.9	19.78	15.78	12.85
x2 = 0.2551	803.824	800.484	797.129	1364.9	1347.2	1329.2	18.76	14.97	12.18
x2 = 0.3201	803.546	800.183	796.807	1359.9	1341.8	1324	17.7	14.12	11.47
x2 = 0.417	803.131	799.716	796.307	1351.3	1333.4	1315.5	16.34	12.99	10.54
x2 = 0.4978	802.728	799.277	795.831	1343.1	1325.1	1307.2	15.11	12	9.757
x2 = 0.6316	801.934	798.413	794.872	1325.5	1307.7	1290.1	12.54	9.98	8.196
x2 = 0.7005	801.422	797.855	794.26	1313.6	1295.9	1278.1	10.9	8.721	7.217
x2 = 0.8028	800.494	796.852	793.147	1289.2	1271.7	1254.1	8.199	6.648	5.581
x2 = 0.8482	800.015	796.317	792.582	1274.6	1257.1	1239.6	6.959	5.693	4.802
x2 = 0.9095	799.392	795.551	791.791	1248.9	1231.6	1214.3	5.361	4.404	3.728
x2 = 0.9448	799.012	795.162	791.339	1229.5	1212.5	1195.4	4.53	3.703	3.115
